Results from patent US7498304B2, “Angiogenesis-modulating compositions and uses” (Curis, Inc., priority 2002, dated 2009).

Columns and labels:
[1] = system: C3H10T1/2 cells; experiment: C3H10T1/2 alkaline phosphatase induction assay; format: cell-based, mouse
Description: Persons having ordinary skill in the art can easily test any putative hedgehog antagonist for these properties. In particular, the mouse embryonic fibroblast line C3H10T1/2 is a mesenchymal stem cell line that is hedgehog responsive. Hedgehog treatment of the cells causes an upregulation of gli-1 and patched-1 (known indicators of hedgehog dependent signaling) and also causes induction of alkaline phosphatase activity, an indicator that the cells have differentiated down the chondrocyte/ bone osteoblast lineage. Several hedgehog variants are unable to elicit a hedgehog-dependent response on C3H10T1/2 cells, but they competed with mature hedgehog for function and therefore serve as functional antagonists. […]
The mouse embryonic fibroblast line C3H10T1/2 is a mesenchymal stem cell line that, under defined conditions, can differentiate into adipocytes, chondrocytes, and bone osteoblasts (Taylor, S. M., and Jones, P. A., Cell 17: 771-779 (1979) and Wang, E. A., et al., Growth Factors 9: 57-71 (1993)). […] Shh has a similar effect on C3H10T1/2 cells (Kinto, N. et al., FEBS Letts. 404: 319-323 (1997)) and we routinely use the alkaline phosphatase induction by Shh as a quantitative measure of its in vitro potency. Shh treatment also produces a dose-dependent increase in gli-1 and ptc-1 expression, which can be readily detected by a PCR-based analysis.

[2] = target: T1, patched-1 (Homo sapiens, UniProt Q13635); experiment: binding to the hedgehog receptor patched-1; conditions: compared with mature Shh
T1 sequence (Q13635 1-1447): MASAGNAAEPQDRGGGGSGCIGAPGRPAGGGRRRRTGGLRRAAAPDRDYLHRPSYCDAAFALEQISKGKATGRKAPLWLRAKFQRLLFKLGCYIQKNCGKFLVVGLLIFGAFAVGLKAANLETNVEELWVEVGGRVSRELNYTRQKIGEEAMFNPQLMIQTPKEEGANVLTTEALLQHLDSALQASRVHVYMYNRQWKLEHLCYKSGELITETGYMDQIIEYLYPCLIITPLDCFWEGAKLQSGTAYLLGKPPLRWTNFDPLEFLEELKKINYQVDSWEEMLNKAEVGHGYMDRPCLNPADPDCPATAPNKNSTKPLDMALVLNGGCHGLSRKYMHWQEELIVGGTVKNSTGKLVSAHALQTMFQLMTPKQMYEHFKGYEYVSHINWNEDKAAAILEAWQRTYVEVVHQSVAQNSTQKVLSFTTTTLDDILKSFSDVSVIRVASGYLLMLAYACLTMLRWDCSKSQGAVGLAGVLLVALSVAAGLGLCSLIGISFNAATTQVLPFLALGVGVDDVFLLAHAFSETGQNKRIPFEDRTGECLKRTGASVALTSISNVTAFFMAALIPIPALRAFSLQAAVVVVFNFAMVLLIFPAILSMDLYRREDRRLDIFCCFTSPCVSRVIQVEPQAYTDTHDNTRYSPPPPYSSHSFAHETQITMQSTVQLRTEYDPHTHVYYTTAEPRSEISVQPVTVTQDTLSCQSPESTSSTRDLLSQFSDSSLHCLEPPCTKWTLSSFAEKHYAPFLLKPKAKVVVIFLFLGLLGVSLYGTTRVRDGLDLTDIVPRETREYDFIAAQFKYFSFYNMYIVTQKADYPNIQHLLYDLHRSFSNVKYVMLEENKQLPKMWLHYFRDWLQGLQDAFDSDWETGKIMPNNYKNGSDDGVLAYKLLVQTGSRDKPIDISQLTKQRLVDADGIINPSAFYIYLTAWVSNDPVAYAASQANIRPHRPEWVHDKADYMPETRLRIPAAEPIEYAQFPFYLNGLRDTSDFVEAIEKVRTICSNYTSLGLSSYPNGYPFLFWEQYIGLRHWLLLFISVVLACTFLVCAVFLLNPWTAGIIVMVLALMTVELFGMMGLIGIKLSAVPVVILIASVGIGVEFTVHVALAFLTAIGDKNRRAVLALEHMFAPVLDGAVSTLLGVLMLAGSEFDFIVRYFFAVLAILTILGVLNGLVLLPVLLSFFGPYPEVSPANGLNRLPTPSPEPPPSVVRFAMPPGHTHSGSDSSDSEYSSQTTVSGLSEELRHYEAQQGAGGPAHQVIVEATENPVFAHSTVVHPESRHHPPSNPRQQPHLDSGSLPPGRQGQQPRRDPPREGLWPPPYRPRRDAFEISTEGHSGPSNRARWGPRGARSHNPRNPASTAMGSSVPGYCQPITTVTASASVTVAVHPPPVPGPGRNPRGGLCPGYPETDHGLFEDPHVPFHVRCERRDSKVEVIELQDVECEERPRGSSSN

[3] = system: matrigel plug; experiment: subcutaneous matrigel plug assay of angiogenesis; conditions: mouse, in vivo
Experimental: Hedgehog was also found to induce angiogenesis in the subcutaneous matrigel plug assay (Passaniti et al., 1992). Doses of 2 to 10 ug/ml of octyl, myr, PEG II or II-Fc fusion forms of human recombinant Shh were prepared in 0.5 ml of matrigel containing 40 IU/ml of heparin and injected subcutaneously into C57BL6 mice (3-5 mo. old, 5 mice/treatment group). The mice were sacrificed between 6-7 days after injection and the matrigel plug was dissected for visual inspection and histological analysis. […] The results of the matrigel plug support the finding that hedgehog can induce angiogenesis in vivo.

Substance | block of AP induction by mature Shh [1] | ability to bind patched-1 [2] | implants with significant hemoglobin content [3]
Shh in which the N-terminal cysteine is replaced with a serine residue: Shh mutant, N-terminal cysteine replaced with serine; functional antagonist | blocks AP induction | indistinguishable from mature Shh | 
bFGF: Recombinant human bFGF, a known angiogenic protein |  |  | 3 of 5
